The target of one experiment is T1, NCp7 (Human immunodeficiency virus type 1 (NEW YORK-5 ISOLATE), UniProt P12493).
T1 construct: same protein as the TSQ zinc-ejection assay
The experiment is described as follows: Electrospray ionization mass spectral analysis of NCp7 with compound. In kind it is binding, HIV-1. The settings on record: 40 μM NCp7, ammonium acetate buffer pH 6, 320 μM compound, 3 minutes. The protocol: Electrospray ionization mass spectral analysis was also performed. Using 40 μM NCp7 in ammonium acetate buffer at pH 6, 320 μM 4-(3-oxo-3h-benzo[d]isothiazol-2-yl)benzenesulfonamide (Example 1) in acetonitrile was added. […] In addition, a peak at 6740 corresponding to the NCp7+308+Zn appeared.

The target of experiment [1] is T2, rabbit reticulocyte 15-LO (Oryctolagus cuniculus, UniProt P12530).
T2 construct: rabbit reticulocyte 15-LO; from tissue; host or cells: rabbit reticulocytes
T2 sequence (P12530 1-663): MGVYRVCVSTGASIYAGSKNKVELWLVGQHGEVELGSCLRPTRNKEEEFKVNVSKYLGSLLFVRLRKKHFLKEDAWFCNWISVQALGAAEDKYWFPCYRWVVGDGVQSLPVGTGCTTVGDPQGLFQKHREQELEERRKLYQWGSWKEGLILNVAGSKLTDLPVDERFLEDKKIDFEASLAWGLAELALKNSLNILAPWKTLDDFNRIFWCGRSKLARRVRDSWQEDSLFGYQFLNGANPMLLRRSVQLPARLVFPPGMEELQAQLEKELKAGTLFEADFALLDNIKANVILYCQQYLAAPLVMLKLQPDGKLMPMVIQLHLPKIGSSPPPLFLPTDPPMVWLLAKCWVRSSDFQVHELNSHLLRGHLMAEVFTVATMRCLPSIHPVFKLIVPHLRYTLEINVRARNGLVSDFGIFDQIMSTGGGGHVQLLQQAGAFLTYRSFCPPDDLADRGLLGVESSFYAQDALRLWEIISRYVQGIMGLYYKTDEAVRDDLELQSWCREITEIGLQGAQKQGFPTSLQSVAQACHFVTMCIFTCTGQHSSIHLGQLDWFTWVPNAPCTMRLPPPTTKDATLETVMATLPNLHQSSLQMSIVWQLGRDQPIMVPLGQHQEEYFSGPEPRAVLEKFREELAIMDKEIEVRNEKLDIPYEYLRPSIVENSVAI
The experiment is described as follows: Colorimetric Assay of 15-LO Inhibition. The class given is biochemical. The settings on record: colorimetric method. Here is the method:
The isothiazolones of Formula I are also effective for treating inflammation and atherosclerosis. A characteristic feature of atherosclerosis is the accumulation of cholesteryl ester engorged from foam cells. Foam cells are derived from circulating monocytes which invade artery walls in response to hypercholesterolemia, and mature into tissue macrophages. […] Specifically, representative compounds were evaluated by the methods described by Auerbach, et al., Analytical Biochemistry, 1992;201:375-380. Two in vitro assays were utilized, both utilizing rabbit reticulocyte 15-LO, and linoleic acid as substrate, to enzymatically produce a peroxide oxidation product known as 13(S)-HPODE. N-Benzoyl leucomethylene blue was utilized as a colorimetric reagent for detection and quantification of the peroxide formation. Also, HPLC was utilized to quantify the oxidation following incubation at 4° C. for 10 minutes.
Table 3 gives the concentration of compound required to inhibit 50% of the activity of 15-LO (IC50) when measured by the HPLC method of Auerbach, et al. Table 4 gives the percent inhibition of 15-LO activity when evaluated by the colorimetric method.

The text below walks through data of patent US5620997A, “Isothiazolones” (Warner-Lambert Company, priority 1995, dated 1997).

“Also recorded” adds a separate entry of the source.

By inhibition is commonly meant the change of the read-out against control, counted positive when it falls.

In the case of `NS(=O)(=O)c1ccc(-n2sc3ccccc3c2=O)cc1` [Example 1, 4-(3-Oxo-3h-benzo[d]isothiazol-2-yl)-benzenesulfonamide], the “Zinc extrusion and covalent adduct formation by electrospray mass spectrometry” value on NCp7 was “a mass peak at 6360 (100%) corresponding to apo NCp7 (loss of 2 Zn) appeared; also recorded: the extrusion of zinc and the formation of a covalent bond between the cysteine of the zinc finger and the isothiazolone”. Moreover, 10 µM produced 35% inhibition in experiment [1].
